According to US5525629A, “Inhibition of cytokine production” (British Bio-Technology Limited, priority 1992, dated 1996):

Legend:
TNF gene transcription = details: literature; compared with corticosteroids, cyclosporin-A, FK506; cited from earlier work
stromelysin = stromelysin (Homo sapiens, UniProt P08254); experiment: inhibition of stromelysin (Cawston et al, acetylated 14C casein); format: biochemical; details: 37°, 16 hours, pH 7.5
Description: The casein was acetylated ^14 C casein prepared by the method of Cawston et al (ibid).

[1] = system: TNF α release from a human monocytic cell line, U937; experiment: inhibition of PMA-stimulated TNF α release from U937 cells (TNF α ELISA); format: cell-based; details: U-937, PMA 50 nM, 18 hours at 37° C., read-out: concentration of test compound which inhibits the release of TNF α by 50% relative to the control culture (IC50)
Method: The ability of example compounds of the invention to inhibit the release of TNF was investigated. The assay is based on the ability of phorbol myristate acetate (PMA) to stimulate the release of TNF α from a human monocytic cell line, U937.
U937 cells cultured in RPMI 1640 medium +5% foetal calf serum are centifuged at 1000×g for 5 minutes and then resuspended in medium at 2×10^6 /mi. 1 ml of cell suspension is aliquoted into individual wells of 24-well plates. Test compounds are dissolved in dimethyl sulphoxide (DMSO) at a stock concentration of 100 mM, then diluted to 50×the final required concentration with RPMI 1640 medium. 20 μl of the diluted compounds are added to U937 cells in duplicate wells. TNF α release is stimulated by addition of PMA to the cells at a final concentration of 50 nM. Appropriate control cultures are set up in duplicate. The plates are incubated for 18 hours at 37° C., 5% CO2, then centrifuged at 1000×g for 5 minutes. A specific ELISA for TNF α obtained from British Bio-technology Products Limited, Abingdon, England is used to measure TNF α levels in the culture supernatants
The average concentration of test compound which inhibits the release of TNF α by 50% relative to the control culture was assessed.

collagenase = target: T1, collagenase (Homo sapiens, UniProt P03956); experiment: inhibition of collagenase (Cawston and Barrett, acetylated 14C collagen); format: biochemical; details: 37°, 16 hours, pH 7.5
T1 sequence (P03956 100-469): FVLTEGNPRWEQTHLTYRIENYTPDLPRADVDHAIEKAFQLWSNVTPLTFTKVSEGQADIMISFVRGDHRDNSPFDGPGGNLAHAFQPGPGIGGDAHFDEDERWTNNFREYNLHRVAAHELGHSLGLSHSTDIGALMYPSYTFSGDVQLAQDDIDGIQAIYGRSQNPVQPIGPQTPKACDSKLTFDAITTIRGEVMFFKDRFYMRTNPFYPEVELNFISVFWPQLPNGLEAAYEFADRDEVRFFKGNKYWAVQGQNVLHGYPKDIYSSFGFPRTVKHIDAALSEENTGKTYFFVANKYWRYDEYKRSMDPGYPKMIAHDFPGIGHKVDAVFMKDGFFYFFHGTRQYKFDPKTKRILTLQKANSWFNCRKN
Description: The collagen was acetylated ^14 C collagen prepared by the method of Cawston and Murphy, (Methods in Enzymology, 80, 711, 1981), hereby incorporated by reference. The samples were centrifuged to sediment undigested collagen, and an aliquot of the radioactive supernatant removed for assay on a scintillation counter as a measure of hydrolysis.

serum TNF = experiment: inhibition of endotoxin (LPS) induced TNF production in vivo (serum TNF by L929 cytotoxicity assay); set-up: species or system Male New Zealand rabbits
Method: The compound of Example 3 was assessed for its ability to inhibit release of endotoxin induced TNF production in vivo.
Male New Zealand rabbits, 2.5-3.0 kg, were anaesthetised with sodium pentobarbitone, 30 mg.kg^-1 via a marginal ear vein which was maintained by infusion at 18 mg.kg^-1.hr^-1 via a jugular vein. Following tracheotomy, the animals were ventilated, to maintain arterial blood […], and oxygen was added to the inspired air to maintain arterial blood PO2 above 100 mmHg. Both femoral veins were cannulated for the administration of endotoxin (LPS) and the infusion of test compound, 2.5 mg.kg^-1.hr^-1 at a rate of 6 ml.hr^-1, 15 minutes before the administration of LPS, 40 μg.kg^-1 i.v. bolus. Blood samples were collected from a femoral artery just before and at 30 minute intervals after the administration of LPS for a period of 4 hours.
The biological activity of TNF in serum test samples was determined using a cytotoxicity assay as described in Mathews, N. and Neale, M. L. in Lymphokines and Interferons, a Practical Approach, Eds. M. J. Clements, A. G. Morris, and A. J. H. Gearing, IRL Press, Oxford, UK.
100 μl volumes of L929 cell suspension at 10^5 cells/ml were dispensed into 96-well microtitre plates. The plates were incubated overnight to allow formation of an even monolayer. A series of dilutions of the test rabbit serum was made in a culture medium containing 2 μg/ml of actinomycin D to give a final concentration of 1 μg/ml when added to the cells. The L929 cells were incubated for 24 hours in the presence of test samples, and serially diluted human TNF α was used as the assay standard. After the incubation period, dead cells were removed by washing briefly with phosphate buffered saline, and remaining cells were fixed with 4% formaldehyde for 10 minutes. After washing the plates with water to remove the fixative, the cells were stained by the addition of 50 μl of 1% crystal violet to each well for 5 minutes. The plates were washed extensively with water and dried. Cells were solubilised by the addition of 100 μl/well of 30% acetic acid and the OD at 550 nm was determined. The TNF level in units/ml in the test samples was determined from the human TNF α standard curve. where 1 unit is the equivalent of 1 pg/ml human TNF α.

[2] = system: TNF production by leucocytes; details: literature (Sampajo et al, 1991); cited from earlier work

Chain of stromelysin (P08254 100-477): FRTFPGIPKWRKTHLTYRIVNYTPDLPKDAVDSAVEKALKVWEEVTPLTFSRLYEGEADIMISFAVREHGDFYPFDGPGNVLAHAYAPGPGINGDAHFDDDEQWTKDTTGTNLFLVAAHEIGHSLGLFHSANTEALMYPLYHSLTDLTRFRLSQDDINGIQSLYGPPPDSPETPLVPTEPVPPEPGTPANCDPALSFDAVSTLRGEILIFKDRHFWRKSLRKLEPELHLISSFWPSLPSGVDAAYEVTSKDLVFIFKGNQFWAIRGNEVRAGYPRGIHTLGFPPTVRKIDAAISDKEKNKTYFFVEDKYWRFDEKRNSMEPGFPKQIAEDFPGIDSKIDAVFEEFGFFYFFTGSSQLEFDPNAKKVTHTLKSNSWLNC

Row | Structure (SMILES) | IC50 (stromelysin) [nM] | IC50 [1] [nM] | IC50 (collagenase) [nM] | other results
1 | CC(=O)CCCCn1c(=O)c2c(ncn2C)n(C)c1=O [pentoxyfilline] | – | – | – | specificity of inhibition of TNF gene transcription (TNF gene transcription): more specific inhibitors of TNF gene transcription
2 | CNC(=O)[C@H](CCC(=O)OC(C)(C)C)NC(=O)[C@H](CC(C)C)[C@H](CSc1ccc(O)cc1)C(=O)NO [Example 12, 2S-(4-Hydroxyphenylsulfanylmethyl)-3R-(3-tertbutoxycarbonyl-1S-methylcarbamoyl-propylcarbamoyl)-5-methyl-hexanohydroxamic acid] | 40 | < 50000 | 20 | –
3 | CNC(=O)[C@H](CCC(=O)OC)NC(=O)[C@H](CC(C)C)[C@H](CSc1cccs1)C(=O)NO [Example 2, 3R-(3-Methoxycarbonyl-1S-methylcarbamoyl-propylcarbamoyl)-5-methyl-2S-(thien-2-ylsulfanylmethyl)-hexanohydroxamic acid] | – | < 50000 | 15 | –
4 | CNC(=O)[C@H](CCC(=O)OC)NC(=O)[C@H](CC(C)C)[C@H](CSc1ccccc1)C(=O)NO [Example 1, 3R-(3-Methoxycarbonyl-1S-methylcarbamoyl-propylcarbamoyl)-5-methyl-2-S-phenylsulfanylmethyl hexanohydroxamic acid] | 250 | – | 20 | –
5 | CNC(=O)[C@H](CCC(=O)OC)NC(=O)[C@H](CC(C)C)[C@H](CSc1ccc(O)cc1)C(=O)NO [Example 3, 2S-(4-Hydroxyphenylsulfanylmethyl)-3R-(3-methoxycarbonyl-1S-methylcarbamoyl-propylcarbamoyl)-5-methyl-hexanohydroxamic acid] | 50 | < 50000 | 9 | Average % change in serum TNF level, LPS + test compound (serum TNF; 0 hrs from LPS bolus IV injection, infusion 2.5 mg.kg^-1.hr^-1 started 15 minutes before LPS 40 μg.kg^-1 i.v., n = 4): 0%; Average % change in serum TNF level, LPS + test compound (serum TNF; 1 hr from LPS bolus, infusion 2.5 mg.kg^-1.hr^-1, LPS alone (n = 5) +65): -58%; Average % change in serum TNF level, LPS + test compound (serum TNF; 2 hrs from LPS bolus, infusion 2.5 mg.kg^-1.hr^-1, LPS alone (n = 5) +55): -65%; Average % change in serum TNF level, LPS + test compound (serum TNF; 3 hrs from LPS bolus, infusion 2.5 mg.kg^-1.hr^-1, LPS alone (n = 5) -30): -99%; Average % change in serum TNF level, LPS + test compound (serum TNF; 4 hrs from LPS bolus, infusion 2.5 mg.kg^-1.hr^-1, LPS alone (n = 5) -100): -100%
6 | O=C1CCC(N2C(=O)c3ccccc3C2=O)C(=O)N1 (centres unmarked) [Thalidomide] | – | – | – | inhibition of TNF production by leucocytes [2]: inhibit TNF production by leucocytes
